The record followed here is patent US9359281B2, “Enantiomers of 2-hydroxy derivatives of fatty acids” (UNIVERSITAT DE LES ILLES BALEARS, priority 2011, dated 2016).

One assay concerns enzyme EC 1.14.19.1. The experiment in a line: [3H]oleate incorporation in U118 cell membranes. Particulars: U118, 200 μM, 24 h. The class given is cell-based, human. The procedure:
FIG. 10. Regulation of the activity of enzyme 1.14.19.1.
Oleic acid is synthesised from esteric acid by the activity of the estearoil-CoA desaturase enzyme (EC 1.14.19.1). This enzyme is crucial in lipid metabolism, as it is a limitant in the synthesis of fatty acids. To see whether this reduction was due to regulation of enzyme EC 1.14.19.1, we incubated U118 cells in the presence or absence of 2OHOA (200 μM, 24 h) and, later, in the presence of [^3H]oleate (5 minutes).

The test system of another assay is SH-SYSY cells. The experiment in a line: Levels of SM in cell membranes, SH-SYSY. The class given is cell-based, human. Particulars: 200 μM [−]2OHOA. The method, then:
(§1) The levels of SM, cultivated in the absence (control) or presence of 200 μM of [−]2OHOA, in normal cell membranes (MRC-5 and IMR90) were measured, and also in several types of tumoral cells (see Table 2). In all cases, we detected that the membranes of tumoral cells have SM levels of about half or a third of that in normal cells (FIG. 1). We can therefore assert that SM concentration is a biomarker which indicates tumorgenesis in human cells. On the other hand, treatments with the molecules of the present invention induce an increase of SM in the tumour cells which is not naturally occurring. […] For example, the spectrophotometry determination of solution fluorescence of the SM levels is a very simple, quick and efficient analysis method (FIG. 1D). Thus, this invention has generated a method for diagnosis for detecting the described pathological processes and pathologies in which there are SM level changes, and also for monitoring the efficiency of the therapy using molecules of the present invention and others of similar activity. Based on this knowledge, this invention also includes kits for diagnosing these diseases.

Assay [1] has as its system human lung tumour sections (A549 cells). The experiment in a line: SM marking (lysenin) in A549 tumour sections from treated mice. Particulars: 600 or 900 mg/kg per day, oral, 50 days. The class given is in vivo. The procedure:
C. Upper panel: specific marking by immunocytochemical techniques of the SM (left: lysenin followed by an antibody marked with Alexa 488 fluorophore), of nuclear DNA with Hoechst 33258 (center: Hoechst) or both (right, merge). Figures correspond to human lung tumour sections (A549 cells) formed in immuno-depressed mice treated with a vehicle (control) or with [−]2OHOA at 600 mg/kg per day or at 900 mg/kg per day (oral administration, 50 days).
Bottom panel: The ordinate axis represents the quantification of the fluorescence intensity (arbitrary units) by confocal microscopy in slices of tumours shown in the upper panel (average+average standard deviation), coming from animals treated with a vehicle, or 2OHOA at 600 mg/kg per day (T600) or 900 mg/kg per day (T900) during 50 days. *** P<0.001.

The subject of another assay is BXPC3 cells. The experiment in a line: Levels of SM in cell membranes, BXPC3. The assay is classed as cell-based, human. Particulars: BXPC3, 200 μM [−]2OHOA. The method, then:
as §1

A further assay has as its system HepG2 cells. The experiment in a line: Levels of SM in cell membranes, HepG2. The assay is classed as cell-based, human. Particulars: HepG2, 200 μM [−]2OHOA. The procedure: as §1
In a further assay the test system is C-6 cells. The experiment in a line: Levels of SM in cell membranes, C-6. Particulars: C-6 rat glioma, 200 μM [−]2OHOA. The assay is classed as cell-based. The method, then:
as §1

The test system of the next assay is 1321N1 cells. The experiment in a line: Cell growth inhibition, 1321N1. The arrangement: key: +: inhibition of cell growth; −: absence of effect. The assay is classed as cell-based, human.
The next assay concerns A172 cells. The experiment in a line: Cell growth inhibition, A172. The arrangement: key: +: inhibition of cell growth; −: absence of effect. The assay is classed as cell-based, human.

Turning to `CCCCCCCC/C=C\CCCCCCC(O)C(=O)O` (racemic) [2OHOA, 2-hydroxyoleic acid], the “incorporation of radioactive oleic acid in cell membranes” value in the assay on enzyme EC 1.14.19.1 is recorded as “significantly less than in control cells”.
Turning to `CCCCCCCC/C=C\CCCCCCC(O)C(=O)O` (centres unmarked) [[−]2OHOA] [[−] HOOC—HOCH—(CH2)6—(CH═CH—CH2)1—(CH2)6—CH3], the “% SM after treatment” value in the assay on SH-SYSY cells is reported as 22%; in the assay on BXPC3 cells, 26%; in the assay with HepG2 cells it was 35%; with C-6 cells, 20%. Besides, the “levels of SM in A549 tumours” value in assay [1] was “levels of SM significantly increase”. For the same compound, the “Effect (anti-proliferation effect)” value in the assay with 1321N1 cells and in the assay with A172 cells was “+” in each case.
